Measured values from patent US20250223307A1, “MDM2/MDMX DOUBLE-TARGET INHIBITOR COMPOUND, PRODRUG, PHARMACEUTICAL COMPOSITION, AND PREPARATION METHOD THEREFOR AND USE THEREOF” (GLOBAL HEALTH DRUG DISCOVERY INSTITUTE, priority 2022, published 2025).
Values after ≈ are worked out from the molar mass of the structure shown.

What was measured:
Solubility test = assay type: physicochemical; conditions: aqueous buffer, kinetic from dmso stock, phosphate buffer pH 7.4, 25° C.
Procedure: Test Example 2: Solubility Test
A test substance and a control drug progesterone were prepared with DMSO into a 10 mM stock solution
30 μL 10 mM stock solution prepared from the test substance and the control drug progesterone was taken and added into bottles in corresponding positions of 96-well sample plate in a specified order. Then, 970 μL of phosphate buffer with pH 7.4 was added into corresponding bottles of the sample plate. The experiments were two parallel experiments. A stirring rod was added into each bottle, and each bottle was covered with a polytetrafluoroethylene/silicon organic resin bottle plug. Then, a sample tray was placed in Eppendorf Thermomixer Comfort and vibrated at a rotating speed of 1100/min at 25° C. for 2 h. 2 h later, the bottle plug was removed, the stirring rod was taken away with a large magnet, and then samples were transferred to a filter plate from the sample plate. A vacuum pump generated a negative pressure to filter the samples. […]
A sample injection plate was placed in a sample injection tray of an automatic sample injection, and samples were evaluated through liquid analysis. […]
Analysis and quantification of the filter of the samples were completed by qualitatively and quantitatively analyzing the peak of a standard product with known concentration through liquid chromatography-mass spectrometry. […]

MDM2 = MDM2 (Homo sapiens, UniProt Q00987); assay: HTRF test: inhibition of MDM2-p53 protein binding
MDM2, sequence (Q00987 2-138): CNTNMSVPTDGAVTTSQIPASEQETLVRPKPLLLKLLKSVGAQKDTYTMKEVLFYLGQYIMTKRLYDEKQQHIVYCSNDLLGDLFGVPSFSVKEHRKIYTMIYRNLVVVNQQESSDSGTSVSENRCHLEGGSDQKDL

MDMX = target: T1, MDMX (Homo sapiens, UniProt O15151); assay: HTRF test: inhibition of MDMX-p53 protein binding
T1 sequence (O15151 2-134): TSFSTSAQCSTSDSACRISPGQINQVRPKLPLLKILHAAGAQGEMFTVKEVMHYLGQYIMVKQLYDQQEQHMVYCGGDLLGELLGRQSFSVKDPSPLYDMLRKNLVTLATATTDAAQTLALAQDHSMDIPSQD

[1] = tested on: Blood cancer cells RS4; 11; assay: CellTiter Glo test: growth inhibition of cells; assay type: cell-based; conditions: Homo sapiens, 11 cells, 72 h, cell viability

Row | Structure (SMILES) | solubility at 2 h (Solubility test) | IC50 (MDM2) | IC50 (MDMX) | IC50 [1]
1 | N#Cc1ccc(C(COP(=O)(O)O)N2C(=O)N/C(=C\c3c[nH]c4cc(Cl)ccc34)C2=O)cc1 (stereo not shown) [Compound 40, (Z)-2-(4-((6-chloro-1H-indol-3-yl)methylene)-2,5-dioxoimidazolidin-1-yl)-2-(4-cyanophenyl)ethyl dihydrophosphate] | 146 µg/mL (≈ 299 µM) | 10 to 100 nM | > 100 nM | –
2 | N#Cc1ccc(C(CO)N2C(=O)N/C(=C\c3c[nH]c4cc(Cl)ccc34)C2=O)cc1 (stereo not shown) [Compound 38, (Z)-4-(1-(4-((6-chloro-1H-indol-3-yl)methylene)-2,5-dioxoimidazolidin-1-yl)-2-hydroxyethyl)benzonitrile] | 0.075 µg/mL (≈ 0.184 µM) | < 10 nM | 10 to 100 nM | ≤ 1000 nM
